Data from the METLIN SMRT retention time set (Domingo-Almenara et al. 2019).

Test: gradient 5% acetonitrile 3 min, to 50% in 2 min, to 85% in 15 min, held 3 min, 100 µL/min
Conditions: column: Zorbax Extend-C18 2.1 x 50 mm; eluents: water / acetonitrile, 0.1% formic acid
How it was run: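 Over 3 months, pure standards in mixtures of ~100 molecules were run by HPLC coupled to a quadrupole time-of-flight mass spectrometer in positive and negative ionization mode. The column was a Zorbax Extend-C18 (2.1 × 50 mm, 1.8 μm) at 100 μL/min, eluted with water and acetonitrile each holding 0.1% formic acid, with 40 μL dead and 900 μL dwell volumes. Retention time was determined from adduct peaks chosen by software and checked manually.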

RP-LC retention time [s]	Structure (SMILES)
776	O=C(Nc1ccccc1Cl)N1CCC(N2CCN(Cc3ccc(F)cc3)C(=O)C2=O)CC1
758	CCc1nc2cc(N3CCC(C(=O)NC(C)CC)CC3)cnc2nc1CC (centres undefined)
611	CN(C)C(=O)c1ccc2c(c1)nc(CN(C)C(=O)Nc1ccccc1Cl)n2C
723	COc1ccc(N2CCN(C(=O)C3CCCN(S(=O)(=O)c4cn(C(C)C)cn4)C3)CC2)cc1 (centres undefined)
724	CCN1CCN(c2cc(C(=O)O)c3cc(NS(=O)(=O)c4ccc(C(C)C)cc4)ccc3n2)CC1
607	CS(=O)(=O)N1CC[C@H]2CN(C(=O)c3ccc4ncccc4c3)C[C@@]2(CF)C1
1120	CCOc1ccc(-n2nnc(C(=O)Nc3cccc(Cl)c3C)c2C)cc1
684	O=C(NCCCN1CCCCC1)C1CCCN(c2ncc(-c3cccc(F)c3)cn2)C1 (centres undefined)
649	Cc1c(F)cccc1NC(=O)N1CCN(C2=CC3=NC(C)CN3C=N2)CC1 (centres undefined)
727	COc1ccccc1CNC(=O)C1CCCN(c2cnc3nc(C)c(C)nc3c2)C1 (centres undefined)
653	CC1CCN(S(=O)(=O)c2ccc3nn(Cc4ccccc4F)c(=O)n3c2)CC1
614	CCNc1nc(N2CCN(C3CCCCC3)CC2)nc2c1cnn2C
740	O=C1COc2ccc(S(=O)(=O)N3CCC(C(=O)NCCc4ccccc4)CC3)cc2N1
910	CCOc1ccccc1N1CCN(S(=O)(=O)c2nn(CC)cc2C(=O)NCCOC)CC1
822	Cc1ccc(Cn2c(=O)n(CCNC(=O)c3cccn3C)c3ncccc32)cc1
703	CCN(CC)C(=O)c1cc2c(s1)CCC(C(=O)O)C2 (centres undefined)
875	CCN1C(=O)C(C)(C(=O)Nc2ccc(F)cc2F)Oc2cccnc21 (centres undefined)
872	O=C(Cc1ccc(Cl)cc1)N1CCN(c2ncccc2-c2nnc(C3CC3)o2)CC1
973	Cc1ccc2c(c1)N(S(C)(=O)=O)CCC(C(=O)Nc1cccc(F)c1)O2 (centres undefined)
627	CCc1nnc(NC(=O)c2ccc(N3C(=O)CCC3=O)cc2)s1
796	CCn1c(CCC(=O)NCc2ccc(C)cc2)nc2ccccc2c1=O
670	CCOc1ccccc1NC(=O)Nc1cccc(-c2ccc(N3CCOCC3)nn2)c1
577	CCCCN(C)C(=O)CC1CCN(c2ccnc(NC)n2)CC1

RP-LC retention time [s]	Structure (SMILES)
910	CCCCNC(=O)Cn1c2ccccc2c2ncn(Cc3nc(-c4ccccc4)no3)c(=O)c21
1090	COc1ccc(S(=O)(=O)N2CCC(c3noc(-c4ccccc4C)n3)CC2)cc1OC
688	Cc1ccc(CNC(=O)[C@@]23CCCC[C@H]2N(C)C(=O)CC3)cc1
726	O=C(NCc1cccc(Br)c1)C1CCN(c2cnc3nccnc3c2)CC1
1030	CCCCN1N=C(C(=O)N2CCC(C)CC2)S(=O)(=O)c2ccccc21
686	c1ccc(-c2cc(N3CCOCC3)n[nH]2)cc1
891	Cc1ccc(F)c(NS(=O)(=O)c2cc3c(s2)CCN(C(=O)C2CCC2)C3)c1
654	CCN(CCCNC(=O)CCc1nnc2ccc(-c3ccccc3)nn12)c1ccccc1
1290	CCCS(=O)(=O)N1CCC2(CC1)CN(c1cccc(F)c1)C2c1ccccc1 (centres undefined)
728	Cc1cnc(-c2cc(N3CCN(C(=O)CCS(C)(=O)=O)CC3)ncc2Cl)c(C)c1
872	COc1ccc(CNC(=O)C2(C)CCN(C(=O)Nc3ccc(F)c(Cl)c3)CC2)cc1
860	O=C(NCc1csc(-c2cccs2)n1)C1CCN(S(=O)(=O)c2ccccc2F)CC1
755	COCCNS(=O)(=O)c1cc(-c2nc(C)cs2)n(CC(=O)N2CCCCC2)c1
862	Cc1ccc(C)c(CNC(=O)CN2CCN(Cc3ccc(F)cc3)C2=O)c1
665	c1cc(CN2CCCCC2)cc(OCCCNc2nc3ccccc3s2)c1
610	CCc1cc(=O)n(CC(=O)NCc2ccc(C)cc2)c(N)n1
673	CC(C)NC(=O)c1c(OCC2CC2)cc(=O)n2c1CCCCC2
996	O=C(CCc1ccc2cc[nH]c2c1)N1CCN(c2ccc(Cl)cc2)CC1
613	CCc1nnc2nc(N3CCN(C(=O)Cc4cccs4)CC3)cc(C)n12
1010	CCOC(=O)c1noc2nc(C)nc(NCc3ccc(OC)cc3)c12
632	Cc1noc(C)c1CC(=O)N1CCCn2ccnc2C1C(C)C (centres undefined)
995	CCOC(=O)c1cc(S(=O)(=O)N2CCCC2C(=O)Nc2cccc(SC)c2)cn1C (centres undefined)

Further lines, the compound ahead of its results:

Structure (SMILES)	RP-LC retention time [s]
CCS(=O)(=O)N1CC(=O)N(c2cc(C)cc(C)c2)C(C)(C(=O)NCc2ccc(F)cc2)C1 (centres undefined)	892
COCCNC(=O)c1nn(-c2ccc(Cl)cc2)nc1CO	792
Cc1nc(CCNS(=O)(=O)Cc2cccc(Cl)c2)no1	792
c1nc2ccc(-c3nc(-c4ccc5c(c4)nnn5CCN4CCCCC4)no3)cc2[nH]1	570
Cc1onc(-c2ccccc2Cl)c1C(=O)Nc1nnc(-c2cccs2)o1	767
CCc1ccc(NC(=O)c2cn(CC3CCCO3)cc3c(=O)n(-c4ccccc4)nc2-3)cc1 (centres undefined)	1160
COc1cccc(NC(=O)N2CCC3(CC2)NC(=O)c2ccc(F)cc2N3C)c1	723
CC(C)C(=O)Nc1cc(-c2ccccc2)nn(C(C)C(=O)Nc2ccccc2Cl)c1=O (centres undefined)	1170
Cn1nc(-c2nnc(-c3ccccc3F)o2)c2c1CCN(S(=O)(=O)c1ccc(Cl)cc1)C2	979
COc1ccc(Cc2nc3nccc(-c4ccccc4)n3n2)cc1	872
Cc1ccc(-c2nc(C3CC(=O)N(c4ccc(F)cc4)C3)no2)c(C)c1 (centres undefined)	1120
Cc1cc(C)cc(Oc2nccn3c(=O)n(CC(=O)NCc4ccccc4)nc23)c1	860
Cc1cc(-c2nnc(-c3ccco3)o2)c(C)n1CC(=O)Nc1cccc(F)c1	881
O=C(NCc1ccc(Cl)cc1)c1nc(-c2ccncc2)cs1	687
NS(=O)(=O)c1ccc(CCNC(=O)c2n[nH]c3ccccc23)cc1	612
O=C([C@@H]1C[C@H](F)CN1S(=O)(=O)c1cccs1)N1CCc2ccccc2C1	830
COc1cc(-c2noc(C3CC(=O)N(c4ccc(C)c(F)c4)C3)n2)cc(OC)c1OC (centres undefined)	976
C=CCN1C(=O)C(C)(C)COc2cc(NS(=O)(=O)c3ccc(Cl)s3)ccc21	975
COc1ccc2c(c1)C1(CCN(S(=O)(=O)c3ccc(OC)c(OC)c3)C1)C(=O)N2 (centres undefined)	757
O=S(=O)(c1ccc2c(c1)CCCC2)N1CCCn2nc(-c3cccnc3)cc2C1	781
COc1ccc(-c2nc(C)cc(C)c2CNS(=O)(=O)c2ccc(C#N)cc2)cc1	636
O=C(Cn1nc2c(Oc3cccc(F)c3)nccn2c1=O)Nc1ccc(F)cc1F	835

Structure (SMILES)	RP-LC retention time [s]
Cc1cc(C)cc(NC(=O)Cn2c(=O)n(-c3ccc(F)cc3)c(=O)c3c2cc(C)n3C)c1	879
Cc1nnsc1C(=O)Nc1ccc(-n2nc(C(F)(F)F)cc2C(F)(F)F)cc1	758
Fc1ccc(F)c(-c2nc(-c3ccc4nncn4c3)no2)c1	801
COc1ccc(-c2nc(C)cc(C)c2CNC(=O)c2cccs2)cc1	610
CC(C)CC(=O)N1CCc2c([nH]c3ccccc23)C12C(=O)N(C)c1ccccc12 (centres undefined)	951
COc1ccccc1-c1nnc(NC(=O)COc2ccccc2)o1	707
O=C(CCc1conc1-c1cccc(F)c1)NCc1ccc(F)cc1	899
Cc1nc2cc(N3CC(C(=O)Nc4ccc(Br)c(C)c4)CC3=O)ccc2o1 (centres undefined)	846
Cc1cccc(CNC(=O)C2(c3ccc(NS(C)(=O)=O)cc3)CCCCC2)c1	921
CC(C)OCCCNC(=O)CCc1c(-c2ccc(F)cc2)nc2ccccn12	622
Cn1nc(-c2nnc(-c3ccc(F)cc3)o2)c2c1CCN(S(=O)(=O)c1ccc(C(C)(C)C)cc1)C2	1180
Cc1ccc(/C=C2\CCOC2=O)cc1	916
Cc1cnc(-c2ccccc2)n1C1CN(S(=O)(=O)c2cccc(F)c2)C1	670
O=C(Nc1cc(Cl)cc(Cl)c1)N1CCc2nc[nH]c2C1	642
CC(C)OC(=O)c1c(-c2ccccc2)c(-c2ccccc2)n[nH]c1=O	910
Cn1cnc2ccc(-c3noc(-c4cccs4)n3)cc21	685
CC(C)(C)OC(=O)Nc1ccc(-c2cc(C(=O)NCCCCCCC(=O)NO)no2)cc1	739
O=C(COc1ccc(Cl)cc1Cl)Nc1nc(-c2ccccc2)cs1	1190
COc1cc(C(=O)Nc2cccc(N3CCCS3(=O)=O)c2)c([N+](=O)[O-])cc1OC	681
Cc1ccc(C)c(-c2coc(-c3ccc(NC(=O)NCCc4ccccc4)cc3)n2)c1	1240
CC(C)C(=O)Nc1nc(-c2ccc3c(c2)NC(=O)C(C)O3)cs1 (centres undefined)	787
COc1cc2c(cc1CNC(=O)COc1ccc(Br)cc1)OCCCO2	957
